The target in this assay is KLHDC2 (Homo sapiens (Human), UniProt Q9Y2U9). Put plainly: AlphaScreen competition assay for ligand binding to KLHDC2 (GST-KLHDC2 vs biotinylated 12 aa SelK degron peptide). As to conditions: formula (II) compounds; 0.12 nM GST-KLHDC2, 1.7 nM biotinylated 12 aa SelK peptide; triplicate; read-out: KLHDC2 binding activities IC50. The text has this: The following is a description of an assay for evaluating ligand binding to KLHDC2.
Amplified Luminescence Proximity Homogenous Assay (AlphaScreen) was used to monitor protein-protein interaction of two tagged components that are immobilized on beads. One component was GST-KLHDC2 (E3) and the other one was biotinylated-SelK peptide with a length of 12 amino acids (Substrate peptide). When the two components bind, they bring the Alpha beads in close proximity to each other that results in a luminescent signal.
AlphaScreen assays for determining and measuring protein-protein interactions were performed using EnSpire reader (PerkinElmer). GST-tagged KLHDC2 was attached to anti-GST AlphaScreen acceptor beads. Synthetic biotinylated 12 aa SelK degron peptide (Bio-Synthesis, Inc.) was immobilized to streptavidin-coated AlphaScreen donor beads. The donor and acceptor beads were brought into proximity by the interactions between the SelK peptide and KLHDC2. Excitation of the donor beads by a laser beam of 680 nm promotes the formation of singlet oxygen. When an acceptor bead is in close proximity, the singlet oxygen reacts with thioxene derivatives in the acceptor beads and causes the emission of 520-620 nm photons, which are detected as the binding signal. If the beads are not in close proximity to each other, the oxygen will return to its ground state and the acceptor beads will not emit light. Competition assays were performed in the presence of representative binding compounds, which were titrated at various concentrations.
The experiments were conducted with 0.12 nM of GST-KLHDC2 and 1.7 nM biotinylated 12 aa SelK peptide in the presence of 5 μg/ml donor and acceptor beads in a buffer of 25 mM HEPES, pH 7.5, 100 mM NaCl, 1 mM TCEP, 0.1% Tween-20, and 0.05 mg/ml Bovine Serum Albumin. The concentrations of the compounds used in competition assays ranged from 0.1 nM to 25 mM. The experiments were done in triplicate. IC50 values were determined using non-linear curve fitting of the dose response curves generated with Prism 4 (GraphPad).
(In general: Bead proximity is the source of the signal in Alpha formats.)

Our source for the IC50 values is patent US20240425519A1, “NOVEL SPIROCYCLIC COMPOUNDS AS KLHDC2 LIGANDS” (University of Washington, priority 2021, published 2024).

Chain of KLHDC2 (Q9Y2U9 whole entry): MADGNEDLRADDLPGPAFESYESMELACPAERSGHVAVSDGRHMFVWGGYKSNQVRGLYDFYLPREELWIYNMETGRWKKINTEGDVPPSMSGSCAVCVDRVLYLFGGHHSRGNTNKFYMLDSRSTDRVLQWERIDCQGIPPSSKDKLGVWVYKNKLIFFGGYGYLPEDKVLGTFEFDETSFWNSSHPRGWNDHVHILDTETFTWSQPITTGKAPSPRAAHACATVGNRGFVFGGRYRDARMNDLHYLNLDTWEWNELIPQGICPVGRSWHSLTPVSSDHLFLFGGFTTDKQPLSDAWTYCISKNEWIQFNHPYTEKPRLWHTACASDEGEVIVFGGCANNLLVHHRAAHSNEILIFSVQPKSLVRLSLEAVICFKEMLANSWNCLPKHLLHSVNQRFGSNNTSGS

`CC(=O)N1CCC[C@@H]1C(=O)N1CCN(C)C2(CCC(=O)N(CC(=O)O)CC2)C1` (stereo partly drawn) [AC1072, 2-(4-(acetyl-D-prolyl)-1-methyl-10-oxo-1,4,9-triazaspiro[5.6]dodecan-9-yl)acetic acid]: the concentration for half-maximal inhibition (IC50) (as a rule, the point on the concentration scale where inhibition reaches its midpoint) came out at 12.5 µM.
